Assay results as given in US9115145B2, “Tocotrienol derivatives and associated methods” (FIRST TECH INTERNATIONAL LIMITED, priority 2011, dated 2015).

Columns and labels:
[1] = tested on: MDA-MB-231 human breast cancer cell line; assay: MTT assay of MDA-MB-231 cells; assay type: cell-based; details: media containing 5% fetal bovine serum
Experimental: MDA-MB-231 and MCF7 cells were plated at a density of 8×10^3 cells/well and 10^4 cells/well in 96-well culture plates, respectively. The compounds were fed in serum free media containing 5% and 1% fetal bovine serum for MDA-MB-231 and MCF7 cells, respectively.

+SA mammary tumor = assay: +SA tumor implantation into mammary fat pads of syngeneic BALB/c mice; assay type: in vivo
Text: The malignant +SA mammary epithelial cell line was derived from an adenocarcinoma that developed spontaneously in a female BALB/c mouse. These cells can be grown on plastic in culture and display the ability to grow in soft agarose. Re-implantation of +SA mammary tumor cells back into the mammary fat pad of syngeneic mice results in the rapid development and growth of metastatic tumors. Prior to experimentation, +SA cells were serially passaged at subconfluent cell density. For subculturing, cells are rinsed with calcium/magnesium-free phosphate buffered saline (PBS) and incubated in 0.05% trypsin containing 0.025% EDTA in PBS for 5 min at 37° C. […] Cell pellets are then resuspended in control culture media, counted by hemocytometer, and then plated at the desired density in culture plates. […] On the day of tumour implantation, +SA cells grown in culture are isolated with trypsin, washed, counted and diluted to the desired concentration in fresh culture medium. […] Tumor size and body weighs were recorded every other day. Average tumor diameter for each palpable tumor was determined using the mean of the 2 largest perpendicular diameters as measured with vernier calipers. Tumor volume was determined using the equation: Volume=Length (cm)×Width^2 (cm)/2 or V=L×W^2/2 […]

| Compound | IC50 [1] | body weights (+SA mammary tumor; 0.5 mg/day intravenous, 14-day treatment period) | +SA mammary tumor growth (+SA mammary tumor; 0.5 mg/day, tail vein injection, 14 day, vs vehicle-treated control) |
| --- | --- | --- | --- |
| CC(C)=CCC/C(C)=C/CC/C(C)=C/CC[C@]1(C)CCc2cc(O)c(C)c(C)c2O1 [Compound 1, γ-tocotrienol, reference compound] | 9.4 µM | – | – |
| COc1ccc(CCNCc2c(O)c(C)c(C)c3c2CC[C@@](C)(CC/C=C(\C)CC/C=C(\C)CCC=C(C)C)O3)cc1OC [Compound 30, (R)-5-((3,4-dimethoxyphenethylamino)methyl)-2,7,8-trimethyl-2-((3E,7E)-4,8,12-trimethyltrideca-3,7,11-trienyl)chroman-6-ol] | – | did not significantly differ | grew at a significantly slower rate |
